Measured values taken from patent US6737383B1, “Herbicidal oxadiazolidines” (priority 1999, dated 2004).

Assays:
bedstraw = experiment: Test B pre/postemergence bedstraw; format: in vivo, Galium aparine
Outline: (§1)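 Response is a visual 0-to-10 score relative to untreated plants, where 0 means no effect and 10 means complete control, taken twelve to sixteen days after application. Treatments went onto soil at planting and onto foliage of 1- to 4-leaf plants, using a surfactant-containing non-phytotoxic solvent.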

blackgrass = experiment: Test B pre/postemergence blackgrass; format: in vivo, Alopecurus myosuroides
Outline: as §1

surinam grass = experiment: Test B pre/postemergence surinam grass; format: in vivo, Brachiaria decumbens
Outline: as §1

cocklebur = experiment: Test B pre/postemergence cocklebur; format: in vivo, Xanthium strumarium
Outline: as §1

corn = experiment: Test B pre/postemergence corn; format: in vivo, Zea mays
Outline: as §1

giant foxtail = experiment: Test B pre/postemergence giant foxtail; format: in vivo, Setaria faberii
Outline: as §1

morningglory = experiment: Test B pre/postemergence morningglory; format: in vivo, Ipomoea hederacea
Outline: as §1

pigweed = experiment: Test B pre/postemergence pigweed; format: in vivo, Amaranthus retroflexus
Outline: as §1

rape = experiment: Test B pre/postemergence rape; format: in vivo, Brassica napus
Outline: as §1

soybean = experiment: Test B pre/postemergence soybean; format: in vivo, Glycine max
Outline: as §1

sugar beet = experiment: Test B pre/postemergence sugar beet; format: in vivo, Beta vulgaris
Outline: as §1

velvetleaf = experiment: Test B pre/postemergence velvetleaf; format: in vivo, Abutilon theophrasti
Outline: as §1

wheat = experiment: Test B pre/postemergence wheat; format: in vivo, Triticum aestivum
Outline: as §1

wild oat = experiment: Test B pre/postemergence wild oat; format: in vivo, Avena fatua
Outline: as §1

rice = experiment: Test B flood test rice; format: in vivo, Oryza sativa
Outline: (§2)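 Read-out is a visual response score from 0 (no effect) to 10 (complete control), assigned by comparison with untreated controls. Treatment was applied at the 2-leaf stage, and plants stayed in the greenhouse for twelve to sixteen days before scoring.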

smallflower flatsedge = experiment: Test B flood test smallflower flatsedge; format: in vivo, Cyperus difformis
Outline: as §2

[1] = Postemergence, Rate 62 g/ha, scale 0 to 10, 0 is no effect, 10 is complete control
[2] = Postemergence, Rate 250 g/ha, scale 0 to 10, 0 no effect, 10 complete control
[3] = Preemergence, Rate 31 g/ha, visual rating, scale 0 to 10 (0 no effect, 10 complete control)
[4] = Preemergence, Rate 62 g/ha, scale 0 to 10, 0 is no effect, 10 is complete control
[5] = Preemergence, Rate 125 g/ha, scale 0 to 10 (0 no effect, 10 complete control)
[6] = Preemergence, Rate 250 g/ha, scale of 0 to 10 where 0 is no effect and 10 is complete control
[7] = Rate 31 g/ha, Postemergence, scale 0 to 10
[8] = Rate 125 g/ha, Postemergence, scale 0 to 10, 0 no effect, 10 complete control
[9] = Rate 125 g/ha, Postemergence section (flood test species), scale 0 to 10, 0 no effect, 10 complete control
[10] = flood test, listed under Postemergence, Rate 250 g/ha, scale 0 to 10, 0 no effect, 10 complete control

## Cc1cccc(C)c1-n1c(=O)on(C(=O)N(c2ccc(F)cc2F)C(C)C)c1=O [Compound 28]
bedstraw; [1]
  Bedstraw plant response rating: 3
bedstraw; [2]
  Bedstraw plant response rating: 8
bedstraw; [3]
  Bedstraw plant response rating: 0
bedstraw; [4]
  Plant response rating, Bedstraw: 0
bedstraw; [5]
  Plant response rating, Bedstraw: 0
bedstraw; [6]
  Plant response rating, Bedstraw: 1
bedstraw; [7]
  Bedstraw plant response rating: 3
blackgrass; [1]
  Blackgrass plant response rating: 0
blackgrass; [2]
  Blackgrass plant response rating: 6
blackgrass; [3]
  Blackgrass plant response rating: 0
blackgrass; [4]
  Plant response rating, Blackgrass: 0
blackgrass; [5]
  Plant response rating, Blackgrass: 0
blackgrass; [6]
  Plant response rating, Blackgrass: 3
blackgrass; [7]
  Blackgrass plant response rating: 0
blackgrass; [8]
  Blackgrass plant response rating: 2
Surinam grass; [1]
  B. signalgrass plant response rating: 0
Surinam grass; [2]
  B. signalgrass plant response rating: 0
Surinam grass; [3]
  B. signalgrass plant response rating: 0
Surinam grass; [4]
  Plant response rating, B. signalgrass: 0
Surinam grass; [5]
  Plant response rating, B. signalgrass: 0
Surinam grass; [6]
  Plant response rating, B. signalgrass: 0
Surinam grass; [7]
  B. signalgrass plant response rating: 0
Surinam grass; [8]
  B. signalgrass plant response rating: 0
cocklebur; [1]
  Cocklebur plant response rating: 0
cocklebur; [2]
  Cocklebur plant response rating: 3
cocklebur; [3]
  Cocklebur plant response rating: 0
cocklebur; [5]
  Plant response rating, Cocklebur: 0
cocklebur; [6]
  Plant response rating, Cocklebur: 0
cocklebur; [7]
  Cocklebur plant response rating: 0
cocklebur; [8]
  Cocklebur plant response rating: 0
corn; [1]
  Corn plant response rating: 0
corn; [2]
  Corn plant response rating: 0
corn; [3]
  Corn plant response rating: 0
corn; [4]
  Plant response rating, Corn: 0
corn; [5]
  Plant response rating, Corn: 0
corn; [6]
  Plant response rating, Corn: 0
corn; [7]
  Corn plant response rating: 0
corn; [8]
  Corn plant response rating: 0
Giant foxtail; [1]
  Giant foxtail plant response rating: 1
Giant foxtail; [2]
  Giant foxtail plant response rating: 4
Giant foxtail; [3]
  Giant foxtail plant response rating: 0
Giant foxtail; [4]
  Plant response rating, Giant foxtail: 2
Giant foxtail; [5]
  Plant response rating, Giant foxtail: 5
Giant foxtail; [6]
  Plant response rating, Giant foxtail: 7
Giant foxtail; [7]
  Giant foxtail plant response rating: 1
Giant foxtail; [8]
  Giant foxtail plant response rating: 2
morningglory; [1]
  Morningglory plant response rating: 2
morningglory; [2]
  Morningglory plant response rating: 2
morningglory; [3]
  Morningglory plant response rating: 0
morningglory; [4]
  Plant response rating, Morningglory: 0
morningglory; [5]
  Plant response rating, Morningglory: 0
morningglory; [6]
  Plant response rating, Morningglory: 0
morningglory; [7]
  Morningglory plant response rating: 0
morningglory; [8]
  Morningglory plant response rating: 2
pigweed; [1]
  Redroot pigweed plant response rating: 0
pigweed; [2]
  Redroot pigweed plant response rating: 2
pigweed; [3]
  Redroot pigweed plant response rating: 0
pigweed; [4]
  Plant response rating, Redroot pigweed: 0
pigweed; [5]
  Plant response rating, Redroot pigweed: 0
pigweed; [6]
  Plant response rating, Redroot pigweed: 1
pigweed; [7]
  Redroot pigweed plant response rating: 0
pigweed; [8]
  Redroot pigweed plant response rating: 1
rape; [1]
  Rape plant response rating: 0
rape; [2]
  Rape plant response rating: 0
rape; [3]
  Rape plant response rating: 0
rape; [4]
  Plant response rating, Rape: 0
rape; [5]
  Plant response rating, Rape: 0
rape; [6]
  Plant response rating, Rape: 0
rape; [7]
  Rape plant response rating: 0
rape; [8]
  Rape plant response rating: 0
soybean; [1]
  Soybean plant response rating: 3
soybean; [2]
  Soybean plant response rating: 3
soybean; [3]
  Soybean plant response rating: 0
soybean; [4]
  Plant response rating, Soybean: 0
soybean; [5]
  Plant response rating, Soybean: 0
soybean; [6]
  Plant response rating, Soybean: 0
soybean; [8]
  Soybean plant response rating: 3
Sugar beet; [1]
  Sugarbeets plant response rating: 1
Sugar beet; [2]
  Sugarbeets plant response rating: 1
Sugar beet; [3]
  Sugarbeets plant response rating: 0
Sugar beet; [4]
  Plant response rating, Sugarbeets: 0
Sugar beet; [5]
  Plant response rating, Sugarbeets: 0
Sugar beet; [6]
  Plant response rating, Sugarbeets: 0
Sugar beet; [8]
  Sugarbeets plant response rating: 1
velvetleaf; [1]
  Velvetleaf plant response rating: 0
velvetleaf; [2]
  Velvetleaf plant response rating: 0
velvetleaf; [3]
  Velvetleaf plant response rating: 0
velvetleaf; [4]
  Plant response rating, Velvetleaf: 0
velvetleaf; [5]
  Plant response rating, Velvetleaf: 0
velvetleaf; [6]
  Plant response rating, Velvetleaf: 0
velvetleaf; [8]
  Velvetleaf plant response rating: 0
wheat; [1]
  Wheat plant response rating: 0
wheat; [2]
  Wheat plant response rating: 0
wheat; [3]
  Wheat plant response rating: 0
wheat; [4]
  Plant response rating, Wheat: 0
wheat; [5]
  Plant response rating, Wheat: 0
wheat; [6]
  Plant response rating, Wheat: 0
wheat; [8]
  Wheat plant response rating: 0
Wild oat; [1]
  Wild oats plant response rating: 0
Wild oat; [2]
  Wild oats plant response rating: 0
Wild oat; [3]
  Wild oats plant response rating: 0
Wild oat; [5]
  Plant response rating, Wild oats: 0
Wild oat; [6]
  Plant response rating, Wild oats: 3
Wild oat; [8]
  Wild oats plant response rating: 0
rice; [1]
  Rice plant response rating: 0
rice; [9]
  Rice plant response rating: 0
rice; Rate 500 g/ha, Postemergence section of Table B, 0 to 10 scale (0 no effect, 10 complete control)
  Rice plant response rating: 3
rice; [10]
  Rice plant response rating: 2
Smallflower flatsedge; [1]
  S. Flatsedge plant response rating: 0
Smallflower flatsedge; [9]
  S. Flatsedge plant response rating: 0
Smallflower flatsedge; [10]
  S. Flatsedge plant response rating: 0
